Assay results reported in patent US8871741B2, “Inhibition of TNF-α induced activation of NFKB by pentosan polysulfate” (Icahn School of Medicine at Mount Sinai, priority 2010, dated 2014).
“Also recorded” adds a separate entry of the source.

Key:
[1] = system: phosphorylated NF-κB (p65 (Ser276)); experiment: Immunostaining for nuclear phosphorylated NF-κB in kidney; format: in vivo, mouse; details: PPS treated 22 month-old diabetic kidney
Description: (§1) Paraffin sections from non-diabetic and diabetic mice were deparaffinized prior to staining for apoptosis, makers for inflammation such as macrophages (F4/80, 1:100, Caltag Laboratories, Burlingame, Calif.) and phosphorylated NF-κB (p65 (Ser276), 1:25, Cell Signaling Technology, Inc, Danvers, Mass.), markers for oxidative stress, i.e., nitrotyrosine (1:140, Upstate Biotechnology Inc, Billerica, Mass.) and malondialdehyde (MDA, 1:100, Alpha Diagnostic International Inc, San Antonio, Tex.), and markers for endoplasmic reticulum (ER) stress, i.e., phosphorylated pancreatic ER kinase (PERK, 1:5, Santa Cruz Biotechnology, Santa Cruz, Calif.), and phosphorylated eukaryotic initiation factor 2α (eIF2α, 1:50, Stressgen Bioreagents Corp, Norwalk, Conn.).
(§2) Stained sections were examined under light microscopy (Zeiss Axioskop, Germany). The cortical area of the kidney was digitized under ×10 objective low power with a Sony 3CCD color video camera and a meta imaging series software (Molecular Devices, Downingtown, Pa.). The area of positively stained tubules and glomeruli was measured and expressed as the percentage of total cortical area. The intensity of the staining was also assessed using the color differentiation program.

[2] = system: hepatic lipase; experiment: Post-heparin hepatic lipase activity in WHHL rabbits; format: in vivo, rabbit; details: end of treatment period
Experimental: Blood was drawn from rabbits after a 12-hour fast into tubes containing EDTA at the beginning of the study, every two weeks during treatment with the atherogenic diet, and at the end of the study. The total cholesterol and triglyceride concentrations (Sigma) as well as unesterified cholesterol and phospholipids (Wako Chemicals, Richmond, Va.) were determined on plasma samples using enzymatic methods on a Hitachi 911 Autoanalyzer (Boehringer Mannheim). Post-heparin hepatic lipase activity was determined as described (Iverius P H, Brunzell J D. Am J Physiol 1985; 249: E107-E114).

[3] = system: TNFα mRNA; experiment: PCR of TNFα mRNA in kidney; format: in vivo, mouse; details: PPS treated 22 month-old diabetic mice, up to 40 PCR cycles
Experimental: mRNA levels were corrected by the levels of β-actin or GAPDH mRNA. The expression of TNFα mRNA in kidney was determined by both a real time and a regular PCR using the primer of forward, 5′-[…]-3′ (SEQ ID NO: 17), reverse, 5′-[…]-3′ (SEQ ID NO: 18). GAPDH and β-actin mRNA levels were measured in the same sample.

[4] = system: 22 month-old diabetic C57B6 mice; experiment: Diabetic nephropathy in aged streptozotocin-diabetic C57B6 mice (albuminuria, renal histology, morphometry, serum chemistry); format: in vivo, mouse
Experimental: 4 and 16-17 month-old female C57B6 mice were obtained from National Institute on Aging and were injected with streptozotocin to induce diabetes. Mice were given 50 μg/g of streptozotocin in every three days, for a total of 5-8 injections. A total of 250-400 μg/g of streptozotocin was sufficient in most of mice to induce stable hyperglycemia (≧250 mg/dL). The streptozotocin dose required to establish stable diabetes was similar between […] and 4 month-old mice. There was less than 10% of mortality in both age groups of diabetic mice with this streptozotocin protocol. Dead mice were excluded from further study. Mice with stable diabetes at 5 or 18 months of age were selected for randomization. Female C57B6 mice were chosen as the onset and nature of renal lesions in aging was documented by the inventors herein These mice have irregular, lengthened estrous cycles around 10 to 14 months of age and the cycles usually cease at 18 months of age. […] 18 month-old diabetic mice were randomly divided into PPS treated (n=10, PPS 25 mg/kg/day in drinking water) and control (n=11) groups. No PPS treatment was given to 5 month-old diabetic mice. Both age groups of diabetic mice were followed for 4 months without insulin treatment. Body weight and blood glucose levels were monitored weekly. Urine albumin excretion was measured bi-weekly using an ELISA kit (Bethyl Laboratory Inc, Houston, Tex., USA), as previously described (Zheng F, et al. Am J Pathol 2003, 162:1339-1348). Urine creatinine levels were measured in the same samples and the urine albumin excretion rate was expressed as the ratio of albumin to creatinine Blood urea nitrogen (BUN) levels and serum creatinine levels were examined at sacrifice. High-performance liquid chromatography (HPLC) was applied for determining serum creatinine levels using the method described by Yuen et al. (Am J Physiol Renal Physiol 2004, 286:F1116-1119).
Mice were sacrificed 4 months after stable hyperglycemia was established. Kidneys were perfused with a saline solution and subsequently one kidney was perfusion-fixed in situ with 4% paraformaldehyde for histologic studies. The tissues were embedded in glycol methacrylate or low melting paraffin, and stained with periodic acid Schiff (PAS) and Masson's Trichrome. Tissues were also postfixed for 1 hour in 1.0% osmium tetroxide, prestained in 1.25% uranyl acetate for 1 hour, dehydrated through a series of graded alcohol solutions, and embedded in EPON epoxy resin for electron microscopy. The glomerular volume and mesangial area were determined by examining plastic embedded sections using a digitizing tablet and video camera. The relative mesangial area was expressed as mesangial/glomerular surface area. Glomerular cell number was determined by counting the nuclear number in at least 30 glomeruli of each section. The glomerular basement membrane thickness was measured by the orthogonal intercept method on electron microscopic images. To determine the number of glomerular fenestrae, the length of was fenestrated or unfenestrated glomerular capillary endothelial cytoplasm was measured. Fenestrated endothelial cell cytoplasm was generally thin whereas the thickness of the unfenestrated endothelial cell cytoplasm was twice or more increased. Tubulointerstitial lesions were scored from 0 to 4 (0, no changes; 1+, changes affecting <25% of the sample; 2+, changes affecting 25 to 50% of the sample; 3+, changes affecting 50 to 75% of the sample; 4+, changes affecting 75 to 100% of the sample) based on tubular atrophy, increase in the thickness of basement membranes and interstitial area, and clusters of inflammatory cells.

[5] = system: macrophages (F4/80); experiment: F4/80 immunostaining for macrophage infiltration in kidney; format: in vivo, mouse; details: PPS treated 22 month-old diabetic mice
Description: as §1, §2

[6] = 22 month-old diabetic mice treated with PPS, n = 10, at sacrifice, mean±SD
[7] = 22 month-old diabetic mice, PPS 25 mg/kg/day in drinking water, 4 months
[8] = morphometric analysis, PPS treated versus untreated 22 month-old diabetic mice

Question: Which results are given for pentosan polysulfate [PPS]?
Answer: number of nuclei stained positively for phosphorylated NF-κB (p65 (Ser276)) [1]: noticeably reduced; activity of post-heparin hepatic lipase, PPS- versus water-treated [2]: no differences; TNFα mRNA expression in the kidneys [3]: completely prevented the upregulation; also recorded: absent; BUN [4, 6]: 21.3 ± 5.6 mg/dL; Scr (serum creatinine) [4, 6]: 0.118 ± 0.02 mg/dL; reduction in tubulointerstitial lesions [4, 7]: ~80%; reduction of the increase in the albumin excretion rate [4, 7]: about 50%; reduction of glomerular endothelial fenestrations ([4]; morphometric analysis, PPS treated 22 month-old diabetic mice): largely prevented; glomerular basement membrane width [4, 8]: decreased; mesangial area [4, 8]: decreased; macrophage infiltration in kidney (F4/80 immunostaining) [5]: largely prevented
